Laboratory results taken from patent US20090280098A1 (priority 2006, published 2009).
Where “and” joins values, the source holds several entries; their conditions need not be identical. Equal entries are not always repeated.

What was measured:
[1] = cellobiose-added high sucrose food for 4 weeks; versus control rats; cited from earlier work
[2] = test system: enzymatic activity for fatty acid synthesis; details: cellobiose-added feedstuff; cited from earlier work
[3] = test system: enzymatic activity for fatty acid degradation; details: cellobiose-added feedstuff; cited from earlier work
[4] = test system: cellooligosaccharide; format: cell-based

| Compound | body fat ratio [1] | levels of total cholesterol and neutral fat [1] | enzymatic activity for fatty acid synthesis [2] | enzymatic activity for fatty acid degradation [3] | Amount of produced Lactic acid [4] |
| --- | --- | --- | --- | --- | --- |
| O=C[C@H](O)[C@@H](O)[C@H](O[C@@H]1O[C@H](CO)[C@@H](O)[C@H](O)[C@H]1O)[C@H](O)CO [cellobiose] | reduced | reduced | inhibited | increased |  |
| Bifidobacterium |  |  |  |  | 1.01 mM and 1.08 mM |
